# How the values were obtained:
# [1] = Percent light transmittance by spectrophotometer; format: physicochemical; conditions: depending on the concentration of material applied
# Experimental: FIG. 8 denotes percent light transmission (% T) of wavelengths between 200 and 750 nm. UV-B radiation occurs at 280-315 nm (dashed green lines), while photosynthetically active radiation occurs between 400-700 nm (solid green lines). The rows of symbols correspond to 12 mL/L concentrations of formulated stearyl alcohol (triangles) and two alternate formulations (squares, diamonds). Water (circles) results in 100% light transmittance. To test the hypothesis that stearyl alcohol reduces transmission of light radiation, particularly within the UV-B spectrum, percent (%) transmittance were measured using a spectrophotometer. stearyl alcohol was diluted to 1/100th of the field application rate (6 mL/L active ingredient) for both visible and non-visible UV light spectra. Visible light spectral analysis was conducted using a 96 well plate while UV transparent cuvettes and 96 well plates were utilized to analyze the percent light transmittance at the UV spectrum. For all spectrophotometer light transmittance screenings, both a water reference and plate blank were used to calibrate the ratio of light energy transmitted through the formulation samples to the energy transmitted through the reference blank. Treatments were replicated three times.
# [2] = test system: soybean leaves; experiment: Leaf temperature and gas exchange of attached soybean leaves in a field; format: in vivo; conditions: 1% v/v DI water solution on upper leaf surface; SE±0.31; P-value<0.02, paired t-test
# Text: FIG. 9 denotes a comparison of the temperature depression caused by stearyl alcohol application to leaves. Points represent temperatures measured at 9 time intervals on four pairs of leaves. FIG. 10 denotes a comparison of photosynthetic capacity of treated leaves, control leaves and leaves prior to stearyl alcohol application. Photosynthetic capacity variation is interpreted as a treatment having higher/lower photosynthesis values than the control for the same stomatal conductance To test the hypothesis that stearyl alcohol reduces internal leaf temperatures while not adversely affecting photosynthesis, stearyl alcohol was applied to eight attached soybean leaves selected from plants growing in a field. The leaves were spaced in blocks so that two leaves could be compared to each other as control/treatment pairs. The leaves were placed in fishing line, wood and metal holders that restrained the leaves in an exposed and horizontal orientation (to prevent leaf orientation changes affecting the leaf energy balance and temperature). Leaf temperature was measured with an IR thermometer three times before and six times after application of a 1% v/v DI water solution of stearyl alcohol to the upper leaf surface, applied using a household spray bottle. Full coverage of the leaf surface was achieved and excess water shaken off. Leaves were dry within half an hour. […]
# [3] = test system: tomato plants; experiment: Controlled lab bioassay of transpiration under moderate heat stress; format: in vivo
# Experimental: FIG. 11 denotes mean transpiration rates of tomato plants treated with stearyl alcohol at 72 hours after application. Bars represent standard errors. A controlled lab bioassay was run to evaluate the ability of stearyl alcohol to decrease transpiration of tomato plants under moderate heat stress. stearyl alcohol was applied at a 6 mL/L concentration in water to five tomato plants at the 6-8 leaf stage growing in 8.9 cm square pots, using a research track sprayer. Sombrero, a commercially available calcium carbonate plant sunscreen product, was applied as a positive control and deionized water as a negative control. The application rate was equivalent to 150 liters of diluted product per acre. After sealing pots with plastic bags to prevent water loss through evaporation from the soil surface and measuring total pot and plant weight, the plants were placed in randomized complete blocks in a growth chamber set to 26° C. with 50% relative humidity, x 3000 μW/cm2 illumination for 14 hours per day. Sealed pots and plants were again weighed at 24, 48 and 72 hours after application. Differences in weight were attributed to water loss through transpiration. Plant mass was then plotted against time, and the slope of the linear regression was taken to be the rate of water loss in Average surface area of the leaves (cm2) was calculated using a digital leaf area scanner. Mean transpiration rate was then calculated as: Rate=Water Loss Rate (μg/sec)/Total Leaf Area (cm2).
# [4] = test system: wine (Merlot) and table (Princess) grape varieties; experiment: Solar radiation damage in Chilean vineyards; format: in vivo; conditions: 3, 6 or 9 mL/L in 100 L of water; at harvest
# Text: FIG. 13 denotes number of sun-damaged bunches of Merlot grape. Bars represent standard error for total number of damaged bunches. Letters are the same for each category of damage and represent significant differences according to a Tukey test for separation of means with α=0.05.
# FIG. 14 denotes number of sun-damaged bunches of Princesa table grape. Bars represent standard error for number of damaged bunches. Letters represent significant differences in number of damaged bunches according to a Tukey test for separation of means with α=0.05.
# To evaluate for protection from excess or harmful solar radiation, stearyl alcohol was applied by Duarte and Associates in established Chilean vineyards planted with wine (Merlot) and table (Princess) grape varieties. Plants were treated in 2014 with 3, 6 or 9 mL/L in 100 L of water when berries reached 11 mm in diameter and at two week intervals over the subsequent six weeks. Five contiguous vines were sprayed per treatment; treatments were replicated 3 times and arranged in a random complete block design. At harvest, bunches were counted per plant, yields assessed, sugar content measured and solar radiation damage rated.
# [5] = test system: almond; experiment: Almond orchard field trial, yield
structure (smiles),measurement,setting,value
CCCCCCCCCCCCCCCCCCO [stearyl alcohol],reductions of light in the photosynthetically active radiation spectrum,[1]; 400-700 nm,10-15%
same,reductions of transmitted UV-B radiation,[1]; UV-B 280-315 nm,20-50%
same,apparent depression in leaf temperatures after application,[2],1.5 degree C.
same,mean transpiration rate,"[3]; 6 mL/L stearyl alcohol, 26° C., 50% relative humidity, up to 72 hours after application, untreated control 6.68",5.33 μg/cm2/sec
same,average reductions in leaf temperature,"[3]; tomato plants, growth chamber 26° C.",1.50 (±0.35) ° C.
same,reductions in transpiration,[3]; vs untreated control,about 20%
same,"damaged bunches, table grape (Princess)",[4],fewer damaged bunches
same,"damaged bunches, wine grape (Merlot)",[4],fewer damaged bunches
same,crop safety in pre-harvest field assessments,"[5]; almond orchard, six assessment dates",confirmed the crop safety
same,almond yields,"[5]; stearyl alcohol 6 ml/L three applications, Surround 50 lbs per acre, untreated 2.8 tons/A",3.2 tons/A

# Reference: patent publication US11707062B2, “Formulation of stearyl alcohol” (PRO FARM GROUP, INC., priority 2017, dated 2023)
